Patent publication US20100113540A1, “Azole and Thiazole Derivatives and Their Use” (ARGENTA DISCOVERY LIMITED, priority 2005, published 2010)
Where a name gives a salt, the structure may show the parent alone.

Target: T1, M3 muscarinic receptor (Homo sapiens, UniProt P20309)
T1 construct: purchased
Assay: Muscarinic receptor radioligand binding assay ([3H]-NMS), M3
Conditions: cell membranes expressing human M3 receptor
Method: (§1) The inhibitory effects of compounds of the present invention at the M3 muscarinic receptor and (in the case of Example 77) the β2 adrenergic receptor, were determined by the following binding assays:
Radioligand binding studies utilising [^3H]-N-methyl scopolamine ([^3H]-NMS) and commercially available cell membranes expressing the human muscarinic receptors (M2 and M3) were used to assess the affinity of muscarinic antagonists for M2 and M3 receptors. Membranes in TRIS buffer were incubated in 96-well plates with [^3H]-NMS and M3 antagonist at various concentrations for 3 hours. Membranes and bound radioligand were then harvested by filtration and allowed to dry overnight. Scintillation fluid was then added and the bound radioligand counted using a Can berra Packard Topcount scintillation counter

T1 sequence (P20309 whole entry): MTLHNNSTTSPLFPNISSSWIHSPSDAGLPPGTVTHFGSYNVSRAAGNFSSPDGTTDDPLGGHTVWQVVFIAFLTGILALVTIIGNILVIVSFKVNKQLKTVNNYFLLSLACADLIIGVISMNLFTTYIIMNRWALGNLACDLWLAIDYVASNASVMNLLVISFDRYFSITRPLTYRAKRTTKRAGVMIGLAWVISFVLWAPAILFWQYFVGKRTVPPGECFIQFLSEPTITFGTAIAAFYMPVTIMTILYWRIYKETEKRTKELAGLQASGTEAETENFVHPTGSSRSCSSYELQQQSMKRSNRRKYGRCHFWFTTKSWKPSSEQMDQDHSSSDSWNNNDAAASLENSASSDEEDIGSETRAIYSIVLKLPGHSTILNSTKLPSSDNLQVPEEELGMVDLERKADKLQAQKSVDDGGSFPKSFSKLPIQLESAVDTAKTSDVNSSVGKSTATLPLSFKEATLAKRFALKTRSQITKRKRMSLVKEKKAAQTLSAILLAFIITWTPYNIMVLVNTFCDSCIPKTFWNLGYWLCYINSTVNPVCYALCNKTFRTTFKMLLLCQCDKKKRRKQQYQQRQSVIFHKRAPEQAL

| SMILES | Ki |
| --- | --- |
| CN(CCCCCCCCCNC[C@H](O)c1ccc(O)c2[nH]c(=O)ccc12)Cc1cnc(C(O)(c2ccccc2)C2CCCCC2)o1 (stereo partly drawn) [Example 77, 5-[(R)-2-(9-{[2-(Cyclohexyl-hydroxy-phenyl-methyl)-oxazol-5-ylmethyl]-methyl-amino}-nonylamino)-1-hydroxy-ethyl]-8-hydroxy-1H-quinolin-2-one] | > 10 nM |
| C[N+](C)(CCCOc1ccccc1)Cc1cnc(C(O)(c2ccccc2)c2ccccc2)o1 [Example 2, [2-(Hydroxy-diphenyl-methyl)-oxazol-5-ylmethyl]-dimethyl-(3-phenoxy-propyl)-ammonium formate] | < 1 nM |
| C[N+](C)(CCCCOc1ccccc1)Cc1cnc([C@](O)(c2ccccc2)C2CCCCC2)o1 [Example 43, [2-((R)-Cyclohexyl-hydroxy-phenyl-methyl)-oxazol-5-ylmethyl]-dimethyl-(4-phenoxy-butyl)-ammonium bromide] | < 1 nM |
| CN(CCCCCCCC[N+](C)(C)Cc1cnc([C@](O)(c2ccccc2)C2CCCCC2)o1)C(=O)OC(C)(C)C [Example 47, [8-(tert-butoxycarbonyl-methyl-amino)-octyl]-[2-((R)-cyclohexyl-hydroxy-phenyl-methyl)-oxazol-5-ylmethyl]-dimethyl-ammonium methanesulfonate] | 1 to 10 nM |
| C[N+](C)(CCc1ccccc1)Cc1cnc([C@@](O)(c2ccccc2)C2CCCCC2)o1 [Example 31, [2-((S)-Cyclohexyl-hydroxy-phenyl-methyl)-oxazol-5-ylmethyl]-dimethyl-phenethyl-ammonium bromide] | > 10 nM |
| O[C@@](c1ccccc1)(c1ncc(C[N+]2(CCCOc3ccccc3)CCCCC2)o1)C1CCCCC1 [Example 39, 1-[2-(Cyclohexyl-hydroxy-phenyl-methyl)-oxazol-5-ylmethyl]-1-(3-phenoxy-propyl)-piperidinium bromide] | > 10 nM |
| OC(c1ccccc1)(c1ccccc1)c1ncc(CN2CCC(Oc3ccccc3)CC2)o1 [Example 26, [5-(4-Phenoxy-piperidin-1-ylmethyl)-oxazol-2-yl]-diphenyl-methanol] | > 10 nM |
| CN(C)Cc1cnc(C(O)(c2ccccc2)C2CCCCC2)o1 (stereo not shown) [Example 4, Cyclohexyl-(5-dimethylaminomethyl-oxazol-2-yl)-phenyl-methanol] | < 1 nM |
| CN(CCCOc1ccccc1)Cc1cnc([C@@](O)(c2ccccc2)C2CCCCC2)o1 (single isomer, unassigned) [Example 14] | > 10 nM |
| CN(C)CCc1cnc(C(O)(c2ccccc2)C2CCCCC2)o1 (single isomer, unassigned) [Example 67] | < 1 nM |
| CNCCCCCCCC[N+](C)(C)Cc1cnc([C@](O)(c2ccccc2)C2CCCCC2)o1 [Example 61, [2-((R)-cyclohexyl-hydroxy-phenyl-methyl)-oxazol-5-ylmethyl]-dimethyl-(8-methylamino-octyl)-ammonium methanesulfonate hydrochloride salt] | < 1 nM |
| C[N+](C)(CCCOc1ccccc1)Cc1cnc([C@@](O)(c2ccccc2)C2CCCC2)o1 (stereo in doubt) [Example 36, [2-(Cyclopentyl-hydroxy-phenyl-methyl)-oxazol-5-ylmethyl]-dimethyl-(3-phenoxy-propyl)-ammonium bromide] | < 1 nM |
| C[N+](C)(CCCOc1ccccc1)Cc1cnc([C@@](O)(c2ccccc2)C2CCCCC2)o1 [Example 7, [2-((S)-Cyclohexyl-hydroxy-phenyl-methyl)-oxazol-5-ylmethyl]-dimethyl-(3-phenoxy-propyl)-ammonium bromide] | 1 to 10 nM |
| C[N+](C)(CCCOc1ccccc1)CCc1cnc(C(O)(c2ccccc2)C2CCCCC2)o1 (single isomer, unassigned) [Example 69, {2-[2-(Cyclohexyl-hydroxy-phenyl-methyl)-oxazol-5-yl]-ethyl}-dimethyl-(3-phenoxy-propyl)-ammonium bromide] | < 1 nM |
| Cc1cccc(C[N+](C)(C)Cc2cnc([C@](O)(c3ccccc3)C3CCCCC3)o2)n1 [Example 35, [2-((R)-cyclohexyl-hydroxy-phenyl-methyl)-oxazol-5-ylmethyl]-dimethyl-(6-methyl-pyridin-2-ylmethyl)-ammonium formate] | 1 to 10 nM |
| C[N+](C)(CCOCc1ccc(Cl)cc1)Cc1cnc([C@](O)(c2ccccc2)C2CCCCC2)o1 [Example 81, [2-(4-Chloro-benzyloxy)-ethyl]-[2-((R)-cyclohexyl-hydroxy-phenyl-methyl)-oxazol-5-ylmethyl]-dimethyl-ammonium methanesulfonate] | < 1 nM |
| C[N+](C)(CCc1ccccc1)Cc1cnc([C@](O)(c2ccccc2)C2CCCCC2)o1 [Example 32, [2-((R)-Cyclohexyl-hydroxy-phenyl-methyl)-oxazol-5-ylmethyl]-dimethyl-phenethyl-ammonium bromide] | < 1 nM |
| CN(CCCOc1ccccc1)Cc1cnc([C@](O)(c2ccccc2)C2CCCCC2)o1 (single isomer, unassigned) [Example 15] | 1 to 10 nM |
| C[N+](C)(CCCOc1ccccc1)CCc1cnc(C(O)(c2ccccc2)C2CCCCC2)o1 (single isomer, unassigned) [Example 68, {2-[2-(Cyclohexyl-hydroxy-phenyl-methyl)-oxazol-5-yl]-ethyl}-dimethyl-(3-phenoxy-propyl)-ammonium bromide] | 1 to 10 nM |
| C[N+](C)(CCCOCc1ccccc1)Cc1cnc([C@](O)(c2ccccc2)C2CCCCC2)o1 [Example 80, (3-Benzyloxy-propyl)-[2-((R)-cyclohexyl-hydroxy-phenyl-methyl)-oxazol-5-ylmethyl]-dimethyl-ammonium bromide] | < 1 nM |
| O[C@@](c1ccccc1)(c1ncc(C[N+]2(CCCOc3ccccc3)CCCC2)o1)C1CCCCC1 [Example 41, 1-[2-(Cyclohexyl-hydroxy-phenyl-methyl)-oxazol-5-ylmethyl]-1-(3-phenoxy-propyl)-pyrrolidinium bromide] | > 10 nM |
| C[N+](C)(CCCOc1ccc(Cl)c(Cl)c1)Cc1cnc([C@](O)(c2ccccc2)C2CCCCC2)o1 [Example 57, [2-((R)-Cyclohexyl-hydroxy-phenyl-methyl)-oxazol-5-ylmethyl]-[3-(3,4-dichloro-phenoxy)-propyl]-dimethyl-ammonium bromide] | < 1 nM |
| C[N+](C)(CCCOc1ccccc1)Cc1cnc(C(O)(c2ccccc2)c2ccccc2)s1 [Example 79, [2-(Hydroxydiphenylmethyl)thiazol-5-ylmethyl]dimethyl-(3-phenoxypropyl)ammonium bromide] | < 1 nM |
| CN(Cc1ccc(CC[N+](C)(C)Cc2cnc([C@](O)(c3ccccc3)C3CCCCC3)o2)cc1)C(=O)OC(C)(C)C [Example 50, (2-{4-[(Tert-butoxycarbonyl-methyl-amino)-methyl]-phenyl}-ethyl)-[2-((R)-cyclohexyl-hydroxy-phenyl-methyl)-oxazol-5-ylmethyl]-dimethyl-ammonium methanesulfonate] | > 10 nM |

Target: T2, human β2 adrenergic receptor (Homo sapiens, UniProt P07550)
T2 construct: purchased
T2 sequence (P07550 whole entry): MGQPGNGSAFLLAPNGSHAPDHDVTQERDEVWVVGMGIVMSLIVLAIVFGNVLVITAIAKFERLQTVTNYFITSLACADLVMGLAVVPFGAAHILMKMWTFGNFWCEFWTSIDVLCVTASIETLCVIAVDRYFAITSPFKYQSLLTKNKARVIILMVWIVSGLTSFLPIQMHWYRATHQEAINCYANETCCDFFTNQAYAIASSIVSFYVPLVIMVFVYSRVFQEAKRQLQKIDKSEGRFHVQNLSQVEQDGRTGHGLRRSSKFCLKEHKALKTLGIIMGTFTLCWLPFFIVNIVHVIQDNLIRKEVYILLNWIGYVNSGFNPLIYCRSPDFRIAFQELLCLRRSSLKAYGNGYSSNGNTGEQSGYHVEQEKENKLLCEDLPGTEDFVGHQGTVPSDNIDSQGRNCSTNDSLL
Assay: β-Adrenergic receptor radioligand binding assay ([125I]-Iodocyanopindolol)
Conditions: cell membranes expressing human β2 adrenergic receptor
Method: as §1
Radioligand binding studies utilising [^125I]-Iodocyanopindolol and commercially available cell membranes expressing the human β2 adrenergic receptor were used to assess the affinity of antagonists for β2-adrenergic receptor. Membranes and SPA-beads were incubated with [^125I-Iodocyanopindolol and β2 antagonist at various concentrations for 3 hours at room temperature in TRIS buffer. The assay was performed in 96-well plates which were read using the Wallac Microbeta counter.

| SMILES | Ki |
| --- | --- |
| CN(CCCCCCCCCNC[C@H](O)c1ccc(O)c2[nH]c(=O)ccc12)Cc1cnc(C(O)(c2ccccc2)C2CCCCC2)o1 (stereo partly drawn) [Example 77, 5-[(R)-2-(9-{[2-(Cyclohexyl-hydroxy-phenyl-methyl)-oxazol-5-ylmethyl]-methyl-amino}-nonylamino)-1-hydroxy-ethyl]-8-hydroxy-1H-quinolin-2-one] | < 100 nM |
